In ChEMBL document CHEMBL4043253, “Synthesis of novel vitamin K derivatives with alkylated phenyl groups introduced at the ω-terminal side chain and evaluation of their neural differentiation activities” (Bioorg Med Chem Lett, 2017) one finds Activity data, which are given here for 13 molecules.

For series [1], the system named is PC-12. Briefly: Cytotoxicity against rat PC12 cells by MTT assay. It is filed as cell-based. Background: Tetrazolium dyes change colour on reduction, which living cells bring about.
The test system of series [2] is Neural stem cell. Briefly: Induction of neuronal differentiation in C57BL/6J mouse neural stem cells assessed as expression of Map2 at 1 uM administered every 2 days for 4 days by CF594/DAPI immunostaining based fluorescence microscopic microscopic analysis. Format: functional.
Series [3] deals with Neural stem cell. Kind of series: Induction of neuronal differentiation in C57BL/6J mouse neural stem cells assessed as Map2 mRNA expression at 1 uM measured after 4 days by RT-PCR analysis. It is filed as functional, cell-based.
Series [4] has as its system PC-12. Briefly: Induction of neurite elongation in rat PC12 cells assessed as […] mRNA expression at 1 uM. It is filed as functional, cell-based.

Active and inactive are the calls of the source. The rule behind the calls is not given here.

Take `CC1=C(C/C=C(\C)CC/C=C(\C)CC/C=C(\C)Cc2ccc(C)c(C)c2)C(=O)c2ccccc2C1=O`: the Activity result with PC-12 [1] is “Non-Toxic”.

Take `CC1=C(C/C=C(\C)CC/C=C(\C)CC/C=C(\C)Cc2cccc(C(C)(C)C)c2)C(=O)c2ccccc2C1=O`: the Activity entry in the series with PC-12 [1] is reported as “Non-Toxic”. In addition, the outcome in the series with Neural stem cell [2] and in the series with Neural stem cell [3] was Active. As for `CC1=C(C/C=C(\C)CC/C=C(\C)Cc2c(C)cc(C)cc2C)C(=O)c2ccccc2C1=O`, in the series on PC-12 [1], the Activity result was “Non-Toxic”.

`CC1=C(C/C=C(\C)CC/C=C(\C)CC/C=C(\C)Cc2cc(C)cc(C)c2)C(=O)c2ccccc2C1=O`: in the series on PC-12 [1], the Activity result is on record as “Non-Toxic”.

With `CC1=C(C/C=C(\C)CC/C=C(\C)CC/C=C(\C)Cc2ccc(C)cc2C)C(=O)c2ccccc2C1=O`, the Activity result in the series on PC-12 [1] is “Non-Toxic”. Turning to `CC1=C(C/C=C(\C)CC/C=C(\C)CC/C=C(\C)Cc2c(C)cc(C)cc2C)C(=O)c2ccccc2C1=O`, the Activity result in the series on PC-12 [1] was “Non-Toxic”. As to `CC1=C(C/C=C(\C)CC/C=C(\C)Cc2cccc(C(C)(C)C)c2)C(=O)c2ccccc2C1=O`, the Activity result in the series with PC-12 [1] was “Non-Toxic”. The outcome with Neural stem cell [2] and with Neural stem cell [3] was Active. Take `CC1=C(C/C=C(\C)CC/C=C(\C)Cc2ccc(C)cc2C)C(=O)c2ccccc2C1=O`: in the series on PC-12 [1], the Activity result is listed as “Non-Toxic”. In the case of `CC(C)=CCC/C(C)=C/CC/C(C)=C/CC/C(C)=C/CC1=C(C)C(=O)c2ccccc2C1=O` [MENATETRENONE], the Activity result with PC-12 [1] is on record as “Non-Toxic”. For the same molecule, the result in the series on PC-12 [4] was inactive. Also, in the series with Neural stem cell [3], the outcome was Active. As for `CC1=C(C/C=C(\C)CC/C=C(\C)Cc2cccc(C)c2C)C(=O)c2ccccc2C1=O`, the Activity entry in the series with PC-12 [1] was “Non-Toxic”. Besides, the outcome in the series with Neural stem cell [2] was inactive. Further, in the series on Neural stem cell [3], the outcome was Active. In the case of `CC1=C(C/C=C(\C)CC/C=C(\C)CC/C=C(\C)Cc2cccc(C)c2C)C(=O)c2ccccc2C1=O`, the Activity entry in the series on PC-12 [1] was “Non-Toxic”. Still for that read-out and setting: under `CC1=C(C/C=C(\C)CC/C=C(\C)Cc2cc(C)cc(C)c2)C(=O)c2ccccc2C1=O` stands “Non-Toxic”. In the case of `CC1=C(C/C=C(\C)CC/C=C(\C)Cc2ccc(C)c(C)c2)C(=O)c2ccccc2C1=O`, the Activity entry in the series with PC-12 [1] is on record as “Non-Toxic”. Moreover, the result in the series with Neural stem cell [2] was inactive. Also, the result in the series on Neural stem cell [3] was Active.
